In patent publication US20240109900A1, “AZABICYCLIC SHP2 INHIBITORS” (IRBM S.P.A., priority 2021, published 2024):
Where two headings read alike, the source gives them in different places.

Assays:
[1] = molecular target: SHP-2 enzyme (Met1-Leu525) (Homo sapiens (Human), UniProt Q06124); experiment: SHP2 inhibition enzymatic assay; format: biochemical; settings: read-out: SHP2wt-IC50
How it was run: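 Compounds were preincubated 30 min with 0.5 nM SHP-2 (Met1-Leu525) plus 500 nM IRS1 activating peptide (pH 7.2 HEPES, 5 mM DTT), then 75 μM DiFMUP substrate reacted 30 min at room temperature. After bpV quench, DiFMUP fluorescence gave % inhibition; four-parameter logistic fit yielded IC50.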

[2] = test system: ERK phosphorylation in KYSE-520 cells; experiment: Phospho-ERK cellular assay; format: cell-based; settings: KYSE-520 cells, 2 h at 37° C., phospho-ERK1/2 (Thr202/Tyr204) TR-FRET, read-out: PERK IC50
How it was run: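 TR-FRET read-out of ERK1/2 Thr202/Tyr204 phosphorylation was taken after overnight antibody incubation at room temperature. Before that, KYSE-520 cells were treated 2 h at 37 °C with compound dilutions and lysed 30 min. Percent inhibition relative to vehicle and cell-free wells was fitted four-parametrically to give IC50.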

[3] = 0.5 nM SHP-2 activated by 500 nM IRS1 peptide, 75 μM DiFMUP substrate

Chain of SHP-2 enzyme (Met1-Leu525) (Q06124 1-525): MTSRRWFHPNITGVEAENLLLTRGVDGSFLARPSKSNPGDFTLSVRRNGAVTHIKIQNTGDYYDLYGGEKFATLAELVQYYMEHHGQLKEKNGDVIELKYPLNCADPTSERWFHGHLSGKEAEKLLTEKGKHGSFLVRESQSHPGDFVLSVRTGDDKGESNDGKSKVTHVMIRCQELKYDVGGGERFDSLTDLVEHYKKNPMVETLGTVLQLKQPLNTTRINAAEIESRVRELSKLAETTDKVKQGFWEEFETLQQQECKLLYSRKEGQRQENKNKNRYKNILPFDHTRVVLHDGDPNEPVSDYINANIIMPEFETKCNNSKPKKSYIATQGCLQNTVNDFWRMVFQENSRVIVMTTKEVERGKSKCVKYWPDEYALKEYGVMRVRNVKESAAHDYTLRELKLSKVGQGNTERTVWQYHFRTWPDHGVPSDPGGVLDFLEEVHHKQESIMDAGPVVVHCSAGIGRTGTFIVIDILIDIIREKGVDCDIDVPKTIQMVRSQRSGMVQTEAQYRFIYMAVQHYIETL

Row | IC50 [1, 3] [µM] | IC50 ([2]; Homo sapiens, KYSE-520, 2 h) [µM] | IC50 [2] [µM] | Compound | IC50 [1] [µM] | IC50 ([2]; Homo sapiens) [µM]
1 | < 0.5 | 1 to 5 | – | NCC1(c2ccccc2F)C2CCN(c3cnc4c(-c5cccc6ccsc56)n[nH]c4n3)CC21 (stereo not drawn) [Example 4, (3-(3-(benzo[b]thiophen-7-yl)-1H-pyrazolo[3,4-b]pyrazin-6-yl)-7-(2-fluorophenyl)-3-azabicyclo[4.1.0]heptan-7-yl)methanamine] | – | –
2 | < 0.5 | < 1 | – | Cc1csc(C2(CN)C3CCN(c4nc5[nH]nc(-c6cccc(Cl)c6Cl)c5nc4CO)CC32)n1 (stereo not drawn) [Example 102, (6-(7-(aminomethyl)-7-(4-methylthiazol-2-yl)-3-azabicyclo[4.1.0]heptan-3-yl)-3-(2,3-dichlorophenyl)-1H-pyrazolo[3,4-b]pyrazin-5-yl)methanol] | – | –
3 | < 0.5 | < 1 | – | Cc1cc(-c2n[nH]c3nc(N4CC[C@@H]5[C@H](C4)[C@@]5(CN)c4ccccc4F)cnc23)cc2cccnc12 [Example 173, ((1S,6R,7R)-7-(2-fluorophenyl)-3-(3-(8-methylquinolin-6-yl)-1H-pyrazolo[3,4-b]pyrazin-6-yl)-3-azabicyclo[4.1.0]heptan-7-yl)methanamine] | – | –
4 | 0.5 to 3 | < 1 | – | COc1ccc2ncccc2c1-c1n[nH]c2nc(N3CC[C@@H]4[C@H](C3)[C@@]4(CN)c3cc(C)on3)cnc12 [Example 115, ((1S,6R,7S)-3-(3-(6-methoxyquinolin-5-yl)-1H-pyrazolo[3,4-b]pyrazin-6-yl)-7-(5-methylisoxazol-3-yl)-3-azabicyclo[4.1.0]heptan-7-yl)methanamine] | – | –
5 | < 0.5 | < 1 | – | NC[C@]1(c2ccccc2F)[C@@H]2CCN(c3cnc4c(-c5ccc(-c6ncco6)cc5Cl)n[nH]c4n3)C[C@@H]21 [Example 264, ((1S,6R,7R)-3-(3-(2-chloro-4-(oxazol-2-yl)phenyl)-1H-pyrazolo[3,4-b]pyrazin-6-yl)-7-(2-fluorophenyl)-3-azabicyclo[4.1.0]heptan-7-yl)methanamine] | – | –
6 | < 0.5 | < 1 | – | Cn1cc2c(Cl)c(-c3n[nH]c4nc(N5C[C@@H]6[C@H](C5)[C@@]6(CN)c5ncc(F)s5)cnc34)ccc2n1 [Example 489, ((1R,5S,6r)-3-(3-(4-chloro-2-methyl-2H-indazol-5-yl)-1H-pyrazolo[3,4-b]pyrazin-6-yl)-6-(5-fluorothiazol-2-yl)-3-azabicyclo[3.1.0]hexan-6-yl)methanamine] | – | –
7 | < 0.5 | < 1 | – | NC[C@]1(c2ccccc2F)[C@@H]2CCN(c3cnc4nc(Sc5ccncc5)ccc4n3)C[C@@H]21 [Example 407, ((1S,6R,7R)-7-(2-fluorophenyl)-3-(6-(pyridin-4-ylthio)pyrido[2,3-b]pyrazin-2-yl)-3-azabicyclo[4.1.0]heptan-7-yl)methanamine] | – | –
8 | < 0.5 | < 1 | – | NC[C@]1(c2ccccc2F)[C@@H]2CCN(c3cnc4c(-c5ccc(O)c(C(F)(F)F)c5)n[nH]c4n3)C[C@@H]21 [Example 360, 4-(6-((1S,6R,7R)-7-(aminomethyl)-7-(2-fluorophenyl)-3-azabicyclo[4.1.0]heptan-3-yl)-1H-pyrazolo[3,4-b]pyrazin-3-yl)-2-(trifluoromethyl)phenol] | – | –
9 | – | – | – | NCC1C2CCN(c3nc4nc(Sc5cccnc5C(F)(F)F)cnc4[nH]3)CC12 (stereo not drawn) [Example 68, (3-(5-((2-(trifluoromethyl)pyridin-3-yl)thio)-1H-imidazo[4,5-b]pyrazin-2-yl)-3-azabicyclo[4.1.0]heptan-7-yl)methanamine] | < 0.5 | > 5
10 | < 0.5 | < 1 | – | Cc1cccc([C@@]2(CN)[C@@H]3CCN(c4cnc5c(-c6ccc7nn(C)cc7c6C)n[nH]c5n4)C[C@@H]32)c1F [Example 184, ((1S,6R,7R)-3-(3-(2,4-dimethyl-2H-indazol-5-yl)-1H-pyrazolo[3,4-b]pyrazin-6-yl)-7-(2-fluoro-3-methylphenyl)-3-azabicyclo[4.1.0]heptan-7-yl)methanamine] | – | –
11 | < 0.5 | < 1 | – | NC[C@]1(c2ccccc2F)[C@@H]2CCN(c3cnc4c(-c5cccc(-c6cnccn6)c5Cl)n[nH]c4n3)C[C@@H]21 [Example 158, ((1S,6R,7R)-3-(3-(2-chloro-3-(pyrazin-2-yl)phenyl)-1H-pyrazolo[3,4-b]pyrazin-6-yl)-7-(2-fluorophenyl)-3-azabicyclo[4.1.0]heptan-7-yl)methanamine] | – | –
12 | < 0.5 | < 1 | – | Cc1cc(C2(CN)C3CCN(c4cnc5c(-c6cccc7nn(C)cc67)n[nH]c5n4)CC32)no1 (stereo not drawn) [Example 26, (3-(3-(2-methyl-2H-indazol-4-yl)-1H-pyrazolo[3,4-b]pyrazin-6-yl)-7-(5-methylisoxazol-3-yl)-3-azabicyclo[4.1.0]heptan-7-yl)methanamine] | – | –
13 | < 0.5 | < 1 | – | Cn1ccc2c(-c3n[nH]c4nc(N5CC[C@@H]6[C@H](C5)[C@@]6(CN)c5ccccc5F)cnc34)ccc(F)c2c1=O [Example 315, 5-(6-((1S,6R,7R)-7-(aminomethyl)-7-(2-fluorophenyl)-3-azabicyclo[4.1.0]heptan-3-yl)-1H-pyrazolo[3,4-b]pyrazin-3-yl)-8-fluoro-2-methylisoquinolin-1(2H)-one] | – | –
14 | < 0.5 | – | < 1 | Cc1csc([C@@]2(CN)[C@@H]3CN(c4cnc5c(-c6ccc7cn(C(F)F)nc7c6Cl)n[nH]c5n4)C[C@@H]32)n1 [Example 464] | – | –
15 | < 0.5 | < 1 | – | Cc1c(-c2n[nH]c3nc(N4CC[C@@H]5[C@H](C4)[C@@]5(CN)c4ccccc4F)cnc23)ccc2nccnc12 [Example 222, ((1S,6R,7R)-7-(2-fluorophenyl)-3-(3-(5-methylquinoxalin-6-yl)-1H-pyrazolo[3,4-b]pyrazin-6-yl)-3-azabicyclo[4.1.0]heptan-7-yl)methanamine] | – | –
16 | < 0.5 | < 1 | – | NC[C@]1(c2ccccc2F)[C@@H]2CCN(c3cnc4nc(Oc5ccc(F)cc5)ccc4n3)C[C@@H]21 [Example 409, ((1S,6R,7R)-3-(6-(4-fluorophenoxy)pyrido[2,3-b]pyrazin-2-yl)-7-(2-fluorophenyl)-3-azabicyclo[4.1.0]heptan-7-yl)methanamine] | – | –
17 | < 0.5 | < 1 | – | COc1cc(-c2n[nH]c3nc(N4CC[C@@H]5[C@H](C4)[C@@]5(CN)c4ccccc4F)cnc23)c2ccnn2c1 [Example 147, ((1S,6R,7R)-7-(2-fluorophenyl)-3-(3-(6-methoxypyrazolo[1,5-a]pyridin-4-yl)-1H-pyrazolo[3,4-b]pyrazin-6-yl)-3-azabicyclo[4.1.0]heptan-7-yl)methanamine] | – | –
18 | < 0.5 | 1 to 5 | – | NCC1(c2ccsc2)C2CCN(c3nc4nc(Sc5cccnc5C(F)(F)F)cnc4[nH]3)CC21 (stereo not drawn) [Example 64, (7-(thiophen-3-yl)-3-(5-((2-(trifluoromethyl)pyridin-3-yl)thio)-1H-imidazo[4,5-b]pyrazin-2-yl)-3-azabicyclo[4.1.0]heptan-7-yl)methanamine] | – | –
19 | < 0.5 | < 1 | – | Cc1nccc(-c2n[nH]c3nc(N4CC[C@@H]5[C@H](C4)[C@@]5(CN)c4ccccc4F)cnc23)c1F [Example 195, ((1S,6R,7R)-3-(3-(3-fluoro-2-methylpyridin-4-yl)-1H-pyrazolo[3,4-b]pyrazin-6-yl)-7-(2-fluorophenyl)-3-azabicyclo[4.1.0]heptan-7-yl)methanamine] | – | –
20 | < 0.5 | < 1 | – | NC[C@]1(c2ccccc2F)[C@@H]2CCN(c3cnc4c(-c5cc(Cl)c(C(N)=O)cc5F)n[nH]c4n3)C[C@@H]21 [Example 253, 4-(6-((1S,6R,7R)-7-(aminomethyl)-7-(2-fluorophenyl)-3-azabicyclo[4.1.0]heptan-3-yl)-1H-pyrazolo[3,4-b]pyrazin-3-yl)-2-chloro-5-fluorobenzamide] | – | –
21 | < 0.5 | < 1 | – | Cc1c(-c2n[nH]c3nc(N4CC[C@@H]5[C@H](C4)[C@@]5(CN)c4ccc(F)cc4F)cnc23)ccc2nn(C)cc12 [Example 199, ((1S,6R,7R)-7-(2,4-difluorophenyl)-3-(3-(2,4-dimethyl-2H-indazol-5-yl)-1H-pyrazolo[3,4-b]pyrazin-6-yl)-3-azabicyclo[4.1.0]heptan-7-yl)methanamine] | – | –
22 | < 0.5 | > 5 | – | Cc1nc(N2CCC3C(C2)C3(CN)c2ccsc2)c(CO)nc1-c1cccc(Cl)c1Cl (stereo not drawn) [Example 1, [3-[7-(aminomethyl)-7-(thiophen-3-yl)-3-azabicyclo[4.1.0]heptan-3-yl]-6-(2,3-dichlorophenyl)-5-methylpyrazin-2-yl]methanol] | – | –
23 | < 0.5 | > 5 | – | NC[C@]1(c2ccccc2F)[C@@H]2CCN(c3cnc(Sc4ccnc5ccccc45)c(N)n3)C[C@@H]21 [Example 524, 6-((1S,6R,7R)-7-(aminomethyl)-7-(2-fluorophenyl)-3-azabicyclo[4.1.0]heptan-3-yl)-3-(quinolin-4-ylthio)pyrazin-2-amine] | – | –
24 | < 0.5 | < 1 | – | Cc1cc([C@@]2(CN)[C@@H]3CCN(c4cnc5c(-c6ccc(F)c7ncccc67)c[nH]c5n4)C[C@@H]32)no1 [Example 156, ((1S,6R,7S)-3-(7-(8-fluoroquinolin-5-yl)-5H-pyrrolo[2,3-b]pyrazin-3-yl)-7-(5-methylisoxazol-3-yl)-3-azabicyclo[4.1.0]heptan-7-yl)methanamine] | – | –
